# Where two headings read alike, the source gives them in different places.
# How the values were obtained:
# [1] = tested on: DKD patients; settings: cited from earlier work
# [2] = tested on: DKD patients; settings: enrichment period, cited from earlier work
# [3] = tested on: DKD patients; assay: SONAR study, six week enrichment period, analyses by concomitant SGLT-2 inhibitor use; format: in vivo, human; set-up: key to UACR Final, Median / UACR Change, Median: UACR values in mg/g; settings: for B-type Natriuretic Peptide, change: geometric mean; for UACR Change, Mean (SD) / UACR Change, Median / UACR Final, Mean (SD) / UACR Final, Median: enrichment atrasentan
# Procedure: A double-blind, randomized, placebo-controlled trial of DKD patients was conducted at 689 sites in 41 countries. The trial was conducted in two phases, an enrichment period and a double-blind treatment period. For the enrichment period, eligible patients were 18-85 years old with type 2 diabetes, an estimated glomerular filtration rate (eGFR) of 25-75 mL/min per 1.73 m^2 of body surface area, a urine albumin-to-creatinine ratio (UACR) of 300-5000 mg/g, a serum albumin of at least 25 g/L, a brain natriuretic peptide (BNP) concentration (level) of no more than 200 pg/mL, a serum potassium of at least 3 to 5 mmol/L, and systolic blood pressure of 110-180 mm Hg. The patients were required to receive a stable, recommended or maximally tolerated dose of an ACE inhibitor or ARB for at least four weeks prior to beginning the enrichment period. Patients also received a diuretic prior to beginning the enrichment period. Exclusion criteria included: a diagnosis of or previous hospital admission for heart failure, a history of severe peripheral or facial edema, diagnosis of type 1 diabetes, history of pulmonary hypertension, pulmonary fibrosis, or any lung diseases requiring oxygen therapy, and known non-diabetic kidney disease. See Heerspink et al., Lancet 393:1937-1947 (2019).
# See Heerspink et al., Diabetes Obes Metab., 20:1829-1835 (2018). 42 responder patients and 9 patients in the non-responder group had used a SGLT-2 inhibitor at the start of enrichment. […] It was concluded that the UACR reduction was consistent in both groups.
# Referring to the following Table 1, case-control matched cohort data from the study is shown.
# SGLT-2 inhibitors included canagliflozin (N=6), empagliflozin (N=4), dapagliflozin (N=3), and luseogliflozin (N=1).
# Change in body weight was used as a surrogate for fluid retention. See, e.g., Hoekman, et al., Clin. J. Am. Soc. Nephrol. 2013; 9(3):490-498. The change in BNP was monitored as an additional surrogate for fluid retention (each 1 kg increase in body weight during the enrichment period was associated with a 7.3% increase in BNP (p-value<0.001)).
# [4] = atrasentan group, treatment period
# [5] = of 1,325 patients, atrasentan 0.75 mg orally daily
# [6] = of 1,325 responders, atrasentan 0.75 mg orally daily, median follow-up 2.2 years
# [7] = Table 2, case-control matched cohort (N = 14 vs N = 42), enrichment period
# [8] = Table 5, combination matched cohort (N = 14 vs N = 42), enrichment period
# [9] = Table 6, combination (N = 14) vs all atrasentan alone subjects (N = 5093), enrichment period
# [10] = No prior or concomitant SGLT2, N 4768
# [11] = Prior and concomitant sGLT2, N 5
structure (smiles),measurement,setting,value
"CCCCN(CCCC)C(=O)CN1C[C@H](c2ccc3c(c2)OCO3)[C@@H](C(=O)O)[C@@H]1c1ccc(OC)cc1 [Atrasentan, (2R,3R,4S)-4-(1,3-benzodioxol-5-yl)-1-[2-(dibutylamino)-2-oxoethyl]-2-(4-methoxyphenyl)pyrrolidine-3-carboxylic acid]",fluid retention and anemia adverse events,[1]; atrasentan group compared with placebo group,more frequent
same,"patients who died, number",[1]; [4],58 patients
same,"patients who died, percent",[1]; [4],4.4%
same,"hospital admission for heart failure, number of patients",[1]; [5],47 patients
same,"hospital admission for heart failure, percent of patients",[1]; [5],3.5%
same,"patients with a primary composite renal endpoint event (doubling of serum creatinine or ESRD), number",[1]; [6],79 patients
same,"patients with a primary composite renal endpoint event (doubling of serum creatinine or ESRD), percent",[1]; [6],6.0%
same,change in UACR from baseline,"[2]; non-responders, with concomitant SGLT-2 inhibitor use",+10.4%
same,change in UACR from baseline,"[2]; non-responders, without concomitant SGLT-2 inhibitor use",−1.3%
same,change in UACR from baseline,"[2]; responders, with concomitant SGLT-2 inhibitor use",−53.2%
same,change in UACR from baseline,"[2]; responders, without concomitant SGLT-2 inhibitor use",−48.8%
same,Change in B-type Natriuretic Peptide (fluid retention),[3]; [7],6.9%
same,Change in Systolic Blood Pressure (renal efficacy),[3]; [7],−9.2 mmHg
same,Change in body weight (fluid retention),[3]; [7],1.1 kg
same,Change in eGFR (renal efficacy),[3]; [7],−0.6 ml/min/1.73 m^2
same,Change in hematocrit (fluid retention),[3]; [7],−2.5%
same,Change in hemoglobin (fluid retention),[3]; [7],-0.9 g/dL
same,"Body weight, change",[3]; [8],0.6 kg
same,"Systolic Blood Pressure, change",[3]; [8],−6.7 mmHg
same,"eGFR, change",[3]; [8],−2.1 ml/min/1.73 m^2
same,"B-type Natriuretic Peptide, change",[3]; [8],5.1%
same,"Body weight, change",[3]; [9],0.6 kg
same,"Systolic Blood Pressure, change",[3]; [9],−4.7 mmHg
same,"eGFR, change",[3]; [9],−1.0 ml/min/1.73 m^2
same,"B-type Natriuretic Peptide, change",[3]; [9],8.3%
same,body weight increased by,"[3]; after six weeks, matched cohort, atrasentan alone",0.6 kg
same,"UACR Change, Mean (SD)","[3]; Concomitant sGLT2 only, N 64",−469.92 (680.739)
same,"UACR Change, Median","[3]; Concomitant sGLT2 only, N 64",−311.00
same,"UACR Final, Mean (SD)","[3]; Concomitant sGLT2 only, N 64",809.47 (956.422)
same,"UACR Final, Median","[3]; Concomitant sGLT2 only, N 64",437.50
same,"UACR Change, Mean (SD)",[3]; [10],−365.00 (1213.365)
same,"UACR Change, Median",[3]; [10],−257.00
same,"UACR Final, Mean (SD)",[3]; [10],891.95 (1352.518)
same,"UACR Final, Median",[3]; [10],540.16
same,"UACR Change, Mean (SD)","[3]; Prior SGLT2 only, N 6",−97.80 (194.266)
same,"UACR Change, Median","[3]; Prior SGLT2 only, N 6",−101.00
same,"UACR Final, Mean (SD)","[3]; Prior SGLT2 only, N 6",1457.19 (1448.751)
same,"UACR Final, Median","[3]; Prior SGLT2 only, N 6",939.56
same,"UACR Change, Mean (SD)",[3]; [11],−109.71 (366.699)
same,"UACR Change, Median",[3]; [11],−261.00
same,"UACR Final, Mean (SD)",[3]; [11],379.37 (556.751)
same,"UACR Final, Median",[3]; [11],136.00
